Measurements published in patent US9066861B2 (priority 2009, dated 2015).

Columns and labels:
[1] = Stability analysis of raw API by stability indicating HPLC method; type: physicochemical; conditions: for Assay (%) HPLC / Percentage Drop (%) HPLC / loss in 3 Months: raw API; for Assay (%) HPLC / Percentage Drop (%) HPLC: after 3 Months
Text: (§1) In both studies the * Initial denotes the results of the samples tested at the time of receipt of the API from the supplier.

[2] = Stability analysis of raw API by titration method (BP); type: physicochemical; conditions: after 3 Months
Text: as §1

## CC(=O)O[C@H]1C[C@@]2(C)[C@@H](C[C@@H](O)[C@H]3[C@@]4(C)CC[C@@H](O)[C@@H](C)[C@@H]4CC[C@@]32C)/C1=C(\CCC=C(C)C)C(=O)O [Sodium Fusidate]
[1]; raw API tested at the time of receipt from the supplier, method not stated
  Initial (%): 98.7%
[1]; 45° C. (C) closed Petri dish
  Assay (%) HPLC: 92.96%
  Percentage Drop (%) HPLC: 5.74%
[1]; 45° C. (O) open Petri dish
  Assay (%) HPLC: 92.65%
  Percentage Drop (%) HPLC: 6.05%
[1]; 45° C. (open condition)
  loss in 3 Months: about 6%
[1]; RT (C) closed Petri dish
  Assay (%) HPLC: 97.67%
  Percentage Drop (%) HPLC: 1.03%
[1]; RT (O) open Petri dish
  Assay (%) HPLC: 96.25%
  Percentage Drop (%) HPLC: 2.45%
[1]; room temperature (open condition)
  loss in 3 Months: about 2.5%
[1]; raw APIs, Tables 1 and 2
  stability as an API, Sodium Fusidate compared with Fusidic acid: significantly more stable than Fusidic acid
[2]; 45° C. (C) closed Petri dish
  Assay (%) Titration: 97.16%
  Percentage Drop (%) Titration: 1.54%
[2]; 45° C. (O) open Petri dish
  Assay (%) Titration: 97.07%
  Percentage Drop (%) Titration: 1.63%
[2]; RT (C) closed Petri dish
  Assay (%) Titration: 98.85%
  Percentage Drop (%) Titration: −0.15%
[2]; RT (O) open Petri dish
  Assay (%) Titration: 97.71%
  Percentage Drop (%) Titration: 0.99%
